Results on five compounds are retold here after US12643871B2, “Aryl formamide compound containing chiral sulfur oxide or salt thereof, preparation method, herbicidal composition and use thereof” (Qingdao Kingagroot Chemical Compound Co., Ltd., priority 2019, dated 2026).

What all share (assay type): in vivo
For one data set, the system named is Setaria viridis. Put plainly: Weeding effect in post-emergence stage. The note with it: 250 g/ha; 2 leaf stage; 15 days after application; fresh weight control rate. The method in brief: (§1)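 Post-emergence spray, 2-leaf stage; doses 500–15 g/ha; acetone + Tween 80 + methyl oleate EC (1.5 L/ha) as synergist. Greenhouse 15 d. Readout: fresh weight control rate graded levels 0–5 (5 = above 85%, 0 = below 5%); triplicate means.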

The subject of the next data set is Amaranthus retroflexus. Briefly: Weeding effect in post-emergence stage. The note with it: 250 g/ha; 2 leaf stage; 15 days after application; fresh weight control rate. The method in brief: as §1
The test system of a further data set is Echinochloa crusgali. Briefly: Weeding effect in post-emergence stage. The note with it: 250 g/ha; 2 leaf stage; 15 days after application; fresh weight control rate. The procedure, abridged:
as §1

In another data set the test system is Abutilon theophrasti. Put plainly: Weeding effect in post-emergence stage. The following applies: 250 g/ha; 2 leaf stage; 15 days after application; fresh weight control rate. The method in brief:
as §1

In another data set the test system is Digitaria sanguinalis. Briefly: Weeding effect in post-emergence stage. The following applies: 250 g/ha; 2 leaf stage; 15 days after application; fresh weight control rate. The procedure, abridged: as §1
In a further data set the test system is rice and other crops. Put plainly: Comparison experiment (post-emergence, Tables 4-7), crop safety. The note with it: dose of 125, 60, 30, 15 g/ha. An excerpt:
(§2) The above growth control rates are fresh weight control rates.
(§3) Experiment on weeding effect in post-emergence stage: monocotyledonous and dicotyledonous weed seeds (Descurainia sophia, Capsella bursa-pastoris, Galium aparine, Stellaria media, Lithospermum arvense, Rorippa indica, Alopecurus aequalis, Beckmannia syzigachne, Sclerochloa dura, Phleum paniculatum, Bromus japonicus, Aegilops tauschii, Phalaris arundinacea, Amaranthus retroflexus, Chenopodiaceae, Commelina communis, Sonchus arvensis, convolvulus arvensis, Cirsium setosum, Solanum nigrum, Acalypha australis, Digitaria sanguinalis, Echinochloa crusgalli, Setaria viridis, Setaria glauca, Leptochloa chinensis, Monochoria vaginalis, Sagittaria trifolia, Scirpus juncoides, Cyperus rotundus, Cyperus iria, Cyperus difformis, Fimbristylis, Portulaca oleracea, Xanthium sibiricum, Pharbitis nil) and major crop seeds (wheat, corn, rice, soybean, cotton, oilseed rape, millet, sorghum, potato, sesame, ricinus) were placed in plastic pots filled with soil, then covered with 0.5-2 cm of soil, allowed to grow in a good greenhouse environment. After 2 weeks of sowing, the test plants were treated in the 2 leaf stage. The tested compounds of the present invention were respectively dissolved in acetone, then added with Tween 80 and 1.5 liter/ha of emulsifiable concentrate of methyl oleate as synergist, diluted with a certain amount of water to obtain a solution with a certain concentration, and sprayed with a spray tower onto the plants. After the application, the plants were cultured for 15 days in the greenhouse, and then the experimental results of the weeding were counted. The doses of the used compounds were 500, 250, 125, 60, 30, 15 g/ha, and the averages were obtained by repeating for three times.
(§4) If there is no clear marker, the post-seedling test conditions are the same as above, and the experimental results are shown in Tables 4-7.

Data set [1] has as its system key weeds such as Digitaria sanguinalis, Leptochloa chinensis. Briefly: Comparison experiment (post-emergence, Tables 4-7), herbicidal activity on weeds not listed separately. The note with it: for activity to key weeds such as Digitaria sanguinalis, Leptochloa chinensis compared with the corresponding racemate or S configuration: dose of 125, 60, 30, 15 g/ha.
From the text: as §2, §3, §4

As for `CC[S@@+]([O-])c1c(C(F)(F)F)ccc(C(=O)Nc2nnc(C)o2)c1F` [Compound 2], the “weeding effect in post-emergence stage, activity level (growth control rate), Setaria viridis” value with Setaria viridis is 4 (Level 4: growth control rate is greater than or equal to 60% and less than 85%). For the same compound, in the data set with Amaranthus retroflexus, the “weeding effect in post-emergence stage, activity level (growth control rate), Amaranthus retroflexus” value (“weeding effect … Amaranthus retroflexus” for short) was 5 (Level 5: growth control rate is above 85%). Further, the “weeding effect in post-emergence stage, activity level (growth control rate), Echinochloa crusgali” value (from here on “weeding effect … Echinochloa crusgali”) with Echinochloa crusgali is recorded as 5 (Level 5: growth control rate is above 85%). Besides, the “weeding effect in post-emergence stage, activity level (growth control rate), Abutilon theophrasti” value in the data set with Abutilon theophrasti is 5 (Level 5: growth control rate is above 85%). In addition, the “weeding effect in post-emergence stage, activity level (growth control rate), Digitaria sanguinalis” value in the data set with Digitaria sanguinalis is 4 (Level 4: growth control rate is greater than or equal to 60% and less than 85%). In the data set with rice and other crops, the “safety to rice and other crops compared with the corresponding racemate or S configuration” value was “higher safety”. The “activity to key weeds such as Digitaria sanguinalis, Leptochloa chinensis compared with the corresponding racemate or S configuration” value in data set [1] is “better activity”.

For `Cc1nnc(NC(=O)c2ccc(C(F)(F)F)c([S@+]([O-])CC3COC3)c2F)o1` [Compound 80], the “weeding effect … Amaranthus retroflexus” value with Amaranthus retroflexus is 5 (Level 5: growth control rate is above 85%). In addition, in the data set on Echinochloa crusgali, the “weeding effect … Echinochloa crusgali” value is listed as 5 (Level 5: growth control rate is above 85%). Also, the “safety to rice and other crops compared with the corresponding racemate or S configuration” value in the data set on rice and other crops is given as “higher safety”. In data set [1], the “activity to key weeds such as Digitaria sanguinalis, Leptochloa chinensis compared with the corresponding racemate or S configuration” value is listed as “better activity”.

Regarding `Cc1nnc(NC(=O)c2ccc(C(F)(F)F)c([S@+]([O-])Cc3cn(C)nc3C)c2F)o1` [Compound 184], the “weeding effect … Amaranthus retroflexus” value with Amaranthus retroflexus is 5 (Level 5: growth control rate is above 85%). Moreover, the “weeding effect … Echinochloa crusgali” value in the data set on Echinochloa crusgali is on record as 5 (Level 5: growth control rate is above 85%). In the data set with rice and other crops, the “safety to rice and other crops compared with the corresponding racemate or S configuration” value is reported as “higher safety”. The “activity to key weeds such as Digitaria sanguinalis, Leptochloa chinensis compared with the corresponding racemate or S configuration” value in data set [1] is on record as “better activity”.

Take `CC[S@@+]([O-])c1c(C(F)(F)F)ccc(C(=O)N(c2nnc(C)o2)C(C)OC(=O)OC)c1F` (stereo partly shown) [Compound 248]: in the data set on Amaranthus retroflexus, the “weeding effect … Amaranthus retroflexus” value is 5 (Level 5: growth control rate is above 85%). Besides, in the data set with Echinochloa crusgali, the “weeding effect … Echinochloa crusgali” value is 5 (Level 5: growth control rate is above 85%). Besides, in the data set with rice and other crops, the “safety to rice and other crops compared with the corresponding racemate or S configuration” value is “higher safety”. In addition, in data set [1], the “activity to key weeds such as Digitaria sanguinalis, Leptochloa chinensis compared with the corresponding racemate or S configuration” value was “better activity”.

Regarding `CCC[S@@+]([O-])c1c(C(F)F)ccc(C(=O)Nc2nnc(C)o2)c1SC` [Compound 865], the “weeding effect in post-emergence stage, activity level (growth control rate), Setaria viridis” value in the data set with Setaria viridis is recorded as 5 (Level 5: growth control rate is above 85%). Further, in the data set on Amaranthus retroflexus, the “weeding effect … Amaranthus retroflexus” value is recorded as 5 (Level 5: growth control rate is above 85%). Also, the “weeding effect … Echinochloa crusgali” value in the data set with Echinochloa crusgali is 5 (Level 5: growth control rate is above 85%). The “weeding effect in post-emergence stage, activity level (growth control rate), Abutilon theophrasti” value in the data set on Abutilon theophrasti was 5 (Level 5: growth control rate is above 85%). For the same compound, the “weeding effect in post-emergence stage, activity level (growth control rate), Digitaria sanguinalis” value with Digitaria sanguinalis is listed as 5 (Level 5: growth control rate is above 85%). In data set [1] (dose of 120, 48, 30, 24 g/ha), the “herbicidal activity and/or crop safety compared with the corresponding racemate or S configuration” value was “better herbicidal activity and/or crop safety”.
